# Test results taken from patent US20260248972A1, “DUAL RECEPTOR TARGETING RADIOLIGANDS AND USES THEREOF RELATED APPLICATIONS” (priority 2022, published 2026).
# pIC50: −log10 of the molar value. Read-outs that look alike come from different tables or passages of the source.
# How the values were obtained:
# [1] = target: T1, CCK2R (Rattus norvegicus, UniProt P30553); experiment: Competitive cell-binding assay on AR42J cells with 125I-C3 as competitive ligand; settings: for pIC50: AR42J cells, 125I-C3 competitive ligand, 37° C. 1 h, read-out: CCK2R/IC50; for Relative Binding Affinity CCK2R: based on mean IC50, C-2 = 1.00
# T1 construct: host or cells: AR42J cells
# T1 sequence (P30553 1-452): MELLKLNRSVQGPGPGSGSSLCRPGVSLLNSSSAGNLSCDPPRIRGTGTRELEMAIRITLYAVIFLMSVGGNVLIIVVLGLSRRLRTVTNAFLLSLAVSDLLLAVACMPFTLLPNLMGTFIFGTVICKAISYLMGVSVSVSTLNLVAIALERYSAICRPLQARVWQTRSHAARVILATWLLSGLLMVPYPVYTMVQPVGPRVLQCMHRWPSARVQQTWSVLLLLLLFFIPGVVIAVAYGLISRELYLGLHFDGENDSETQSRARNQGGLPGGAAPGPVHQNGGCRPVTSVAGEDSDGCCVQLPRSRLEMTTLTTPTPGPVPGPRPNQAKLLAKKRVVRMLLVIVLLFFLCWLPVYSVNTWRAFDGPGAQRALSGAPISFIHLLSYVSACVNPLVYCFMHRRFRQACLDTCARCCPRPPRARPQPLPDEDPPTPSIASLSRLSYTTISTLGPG
# Description: (§1) AR42J cells (ATCC) were maintained in RPMI-1640 medium (Gibco) supplemented with 15% fetal bovine serum (Gibco) and 1% penicillin-streptomycin (BI) at 37° C. in a humidified incubator with 5% CO2. The culture medium was replaced with fresh medium every 2-3 days. Experiments were performed with cells at 70-80% confluence.
# (§2) Binding Affinity Tested by Using ^125I-Labeled Competitive Ligands.
# (§3) The binding affinities of test compounds were determined by a competitive cell-binding assay using ^125I-C1 and ^125I-C3 as the competitive ligand. The suspended AR42J cells at a density of 1~3×10^6 cells/mL in binding buffer (RPMI-1640 medium supplemented with 0.25% bovine serum albumin) were transferred to a MultiScreen-DV Filter Plate (Millipore) with 100 μL per well except the blank group where the binding buffer was used instead. The cells were then incubated with ^125I-C1 and ^125I-C3 (0.02 μCi/well) in the presence of increasing concentrations (0-10000 nM) of test compounds at 37° C. for 1 h (n=3). The final volume in each well was maintained at 200 μL and insufficient volume was adjusted by the binding buffer. After the 1 h incubation, unbound ^125I-competitive ligands were removed by filtration using a Multiscreen vacuum manifold (Millipore) followed by rinses with the binding buffer (3 times). The filters were collected, and their radioactivity were individually measured by γ counter (2480 WIZARD2, PerkinElmer). The best-fit IC50value (inhibitory concentration when 50% of the bound ^125I-C1 and ^125l I-C3 on cells were displaced) of test compounds were calculated by fitting the data with nonlinear regression using GraphPad Prism 8.0.1.
# [2] = target: T2, SSTR2 (Rattus norvegicus, UniProt P30680); experiment: Competitive cell-binding assay on AR42J cells with 125I-C1 as competitive ligand; settings: for Relative Binding Affinity SSTR2: based on mean IC50, C-1 = 1.00
# T2 construct: host or cells: AR42J cells
# T2 sequence (P30680 whole entry): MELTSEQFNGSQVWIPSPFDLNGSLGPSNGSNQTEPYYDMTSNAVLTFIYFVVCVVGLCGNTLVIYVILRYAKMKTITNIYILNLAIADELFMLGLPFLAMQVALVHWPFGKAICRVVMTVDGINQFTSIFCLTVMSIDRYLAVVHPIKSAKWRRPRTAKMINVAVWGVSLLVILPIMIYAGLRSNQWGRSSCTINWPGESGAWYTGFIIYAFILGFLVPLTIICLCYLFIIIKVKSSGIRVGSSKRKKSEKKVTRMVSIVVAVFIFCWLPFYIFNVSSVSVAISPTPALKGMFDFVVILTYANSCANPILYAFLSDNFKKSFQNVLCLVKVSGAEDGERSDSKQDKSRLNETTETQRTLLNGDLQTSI
# Description: as §1, §2, §3
# [3] = in vivo; settings: BALB/c nude, mouse, in vivo, iv, total radioactivity
# Method in brief: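 Tissue uptake given as % ID and % ID/g from γ counting of organs taken 4, 24 and 72 h after injection into BALB/c nude mice carrying subcutaneous AR42J xenografts (0.05-0.50 g). Tracers were ^177Lu-labelled at 95° C for 15 min in pH 4.5 NaOAc buffer and used neat or diluted in PBS containing 3 mg/mL ascorbate.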
Relative Binding Affinity CCK2R [1],Relative Binding Affinity SSTR2 [2],SMILES,also measured
12.1,3.60,"C[C@@H](O)C(NC(=O)[C@@H]1CSSC[C@H](NC(=O)[C@@H](Cc2ccccc2)NC(=O)COCCOCCNC(=O)[C@H](CCCCNC(=O)CC[C@H](NC(=O)CNC(=O)c2cccc(NC(=O)N[C@@H]3CN(C4CCCCC4)c4ccccc4N(CC(=O)C(C)(C)C)C3=O)c2)C(=O)O)NC(=O)COCCOCCNC(=O)CCC(C(=O)O)N2CCN(CC(=O)O)CCN(CC(=O)O)CCN(CC(=O)O)CC2)C(=O)N[C@@H](Cc2ccc(O)cc2)C(=O)N[C@H](Cc2c[nH]c3ccccc23)C(=O)N[C@@H](CCCCN)C(=O)N[C@@H]([C@@H](C)O)C(=O)N1)C(=O)O (stereo in doubt) [Compound I-20, DOTAGA- OEG- K(-gE- G- Z360)- OEG- f[CYwKTC]T- OH]","pIC50 [1]: 8.85; pIC50 ([2]; AR42J cells, 125I-C1 competitive ligand, 37° C. 1 h, read-out: SSTR2/IC50): 9.11"
,2.94,"C[C@@H](O)[C@H](NC(=O)[C@@H]1CSSC[C@H](NC(=O)[C@@H](Cc2ccccc2)NC(=O)COCCOCCNC(=O)COCCOCCNC(=O)[C@H](CCCCNC(=O)CC[C@H](NC(=O)CNC(=O)c2cccc(NC(=O)N[C@@H]3CN(C4CCCCC4)c4ccccc4N(CC(=O)C(C)(C)C)C3=O)c2)C(=O)O)NC(=O)CN2CCN(CC(=O)O)CCN(CC(=O)O)CCN(CC(=O)O)CC2)C(=O)N[C@@H](Cc2ccc(O)cc2)C(=O)N[C@H](Cc2c[nH]c3ccccc23)C(=O)N[C@@H](CCCCN)C(=O)N[C@@H]([C@@H](C)O)C(=O)N1)C(=O)O [Compound I-2, DOTA-K(-gE-G-Z360)-OEG-OEG-f[CYwKTC]T-OH]",
53.1,0.90,"C[C@@H](O)[C@H](NC(=O)[C@@H]1CSSC[C@H](NC(=O)[C@@H](Cc2ccccc2)NC(=O)[C@H](CCCCNC(=O)[C@H](CCC(=O)O)NC(=O)c2cccc(NC(=O)N[C@@H]3CN(C4CCCCC4)c4ccccc4N(CC(=O)C(C)(C)C)C3=O)c2)NC(=O)CN2CCN(CC(=O)O)CCN(CC(=O)O)CCN(CC(=O)O)CC2)C(=O)N[C@@H](Cc2ccc(O)cc2)C(=O)N[C@H](Cc2c[nH]c3ccccc23)C(=O)N[C@@H](CCCCN)C(=O)N[C@@H]([C@@H](C)O)C(=O)N1)C(N)=O [Compound I-4, DOTA-K(-E-Z360)-f[CYwKTC]T-NH2]",
216,0.10,"C[C@@H](O)[C@@H]1NC(=O)[C@H](CCCCN)NC(=O)[C@@H](Cc2c[nH]c3ccccc23)NC(=O)[C@H](Cc2ccc(O)cc2)NC(=O)[C@@H](NC(=O)[C@@H](Cc2ccccc2)NC(=O)COCCOCCNC(=O)[C@H](CCCCNC(=O)[C@H](CCC(=O)O)NC(=O)c2cccc(NC(=O)N[C@@H]3CN(C4CCCCC4)c4ccccc4N(CC(=O)C(C)(C)C)C3=O)c2)NC(=O)CN2CCN(CC(=O)O)CCN(CC(=O)O)CCN(CC(=O)O)CC2)CSSC[C@@H](C(=O)N[C@H](CO)[C@@H](C)O)NC1=O [Compound I-5, DOTA-K(-E-Z360)-OEG-f[CYwKTC]-Thr(ol)]",
19.7,0.20,"C[C@@H](O)[C@@H]1NC(=O)[C@H](CCCCN)NC(=O)[C@@H](Cc2c[nH]c3ccccc23)NC(=O)[C@H](Cc2ccc(O)cc2)NC(=O)[C@@H](NC(=O)[C@@H](Cc2ccccc2)NC(=O)[C@H](CCCCNC(=O)[C@H](CCC(=O)O)NC(=O)c2cccc(NC(=O)N[C@@H]3CN(C4CCCCC4)c4ccccc4N(CC(=O)C(C)(C)C)C3=O)c2)NC(=O)CN2CCN(CC(=O)O)CCN(CC(=O)O)CCN(CC(=O)O)CC2)CSSC[C@@H](C(=O)N[C@H](CO)[C@@H](C)O)NC1=O [Compound I-6, DOTA-K(-E-Z360)-f[CYwKTC]-Thr(ol)]",
275,0.78,"C[C@@H](O)[C@H](NC(=O)[C@@H]1CSSC[C@H](NC(=O)[C@@H](Cc2ccccc2)NC(=O)COCCOCCNC(=O)[C@H](CCCCNC(=O)CC[C@H](NC(=O)CNC(=O)c2cccc(NC(=O)N[C@@H]3CN(C4CCCCC4)c4ccccc4N(CC(=O)C(C)(C)C)C3=O)c2)C(=O)O)NC(=O)CC[C@H](NC(=O)CC[C@H](NC(=O)CN2CCN(CC(=O)O)CCN(CC(=O)O)CCN(CC(=O)O)CC2)C(=O)O)C(=O)O)C(=O)N[C@@H](Cc2ccc(O)cc2)C(=O)N[C@H](Cc2c[nH]c3ccccc23)C(=O)N[C@@H](CCCCN)C(=O)N[C@@H]([C@@H](C)O)C(=O)N1)C(=O)O [Compound I-10, DOTA-gE-gE-K(-gE-G-Z360)-OEG-f[CYwKTC]T-OH]",
,0.51,"C[C@@H](O)[C@H](NC(=O)[C@@H]1CSSC[C@H](NC(=O)[C@@H](Cc2ccccc2)NC(=O)COCCOCCNC(=O)[C@H](CCCCNC(=O)[C@H](CCC(=O)O)NC(=O)c2cccc(NC(=O)N[C@@H]3CN(C4CCCCC4)c4ccccc4N(CC(=O)C(C)(C)C)C3=O)c2)NC(=O)CN2CCN(CC(=O)O)CCN(CC(=O)O)CCN(CC(=O)O)CC2)C(=O)N[C@@H](Cc2ccc(O)cc2)C(=O)N[C@H](Cc2c[nH]c3ccccc23)C(=O)N[C@@H](CCCCN)C(=O)N[C@@H]([C@@H](C)O)C(=O)N1)C(=O)O [Compound I-27, DOTA-K(-E-Z360)-OEG-f[CYwKTC]T-OH]",tissue to tissue ratio at 24 h ([3]; T/K Tumor/Kidney ratio): 1.4; tissue to tissue ratio at 24 h ([3]; T/L Tumor/Liver ratio): 26; tissue to tissue ratio at 24 h ([3]; T/P Tumor/Pancreas ratio): 16; tissue to tissue ratio at 24 h ([3]; T/Sp Tumor/Spleen ratio): 64; tissue to tissue ratio at 24 h ([3]; T/St Tumor/Stomach ratio): 6.3; tissue uptake at 24 h ([3]; uptake Kidney): 21 %ID/g; tissue uptake at 24 h ([3]; uptake Liver): 1.11 %ID/g; tissue uptake at 24 h ([3]; uptake Pancreas): 1.79 %ID/g; tissue uptake at 24 h ([3]; uptake Spleen): 0.44 %ID/g; tissue uptake at 24 h ([3]; uptake Stomach): 4.51 %ID/g; tissue uptake at 24 h ([3]; uptake Tumor): 28.5 %ID/g

# Second part, the compound before the results:
SMILES,Relative Binding Affinity CCK2R [1],Relative Binding Affinity SSTR2 [2],also measured
"C[C@@H](O)[C@H](NC(=O)[C@@H]1CSSC[C@H](NC(=O)[C@@H](Cc2ccccc2)NC(=O)CN2CCN(CC(=O)O)CCN(CC(=O)O)CCN(CC(=O)O)CC2)C(=O)N[C@@H](Cc2ccc(O)cc2)C(=O)N[C@H](Cc2c[nH]c3ccccc23)C(=O)N[C@@H](CCCCN)C(=O)N[C@@H]([C@@H](C)O)C(=O)N1)C(=O)O [Compound C-1, DOTA-f[CYwKTC]T-OH, reference compound]",,,pIC50 [2]: 8.55
"CCCC[C@H](NC(=O)[C@H](Cc1c[nH]c2ccccc12)NC(=O)CNC(=O)[C@H](Cc1ccc(O)cc1)NC(=O)[C@H](C)NC(=O)[C@@H](CCC(=O)O)NC(=O)[C@@H](CCC(=O)O)NC(=O)[C@@H](CCC(=O)O)NC(=O)[C@@H](CCC(=O)O)NC(=O)[C@@H](CCC(=O)O)NC(=O)[C@@H](CCC(=O)O)NC(=O)CN1CCN(CC(=O)O)CCN(CC(=O)O)CCN(CC(=O)O)CC1)C(=O)N[C@@H](CC(=O)O)C(=O)N[C@@H](Cc1ccccc1)C(N)=O [Compound C-2, DOTA-e-e-e-e-e-e-AYGW-Nle-DF-NH2, reference compound]",1.00,<0.001,pIC50 [1]: 7.77
"CC(C)(C)C(=O)CN1C(=O)[C@H](NC(=O)Nc2cccc(C(=O)N[C@@H](CCC(=O)N[C@@H](CCC(=O)N[C@@H](CCC(=O)N[C@@H](CCCCNC(=O)COCCOCCNC(=O)COCCOCCNC(=O)CCC(C(=O)O)N3CCN(CC(=O)O)CCN(CC(=O)O)CCN(CC(=O)O)CC3)C(N)=O)C(=O)O)C(=O)O)C(=O)O)c2)CN(C2CCCCC2)c2ccccc21 (stereo partly drawn) [Compound C-4, Z360-gE-gE-gE-K(-OEG-OEG-DOTAGA)-NH2, reference compound]",21.9,,
